Laboratory results taken from PMC8170916, “Sublingual AKBA Exerts Antidepressant Effects in the Aβ-Treated Mouse Model” (Biomolecules, 2021).

Columns and labels:
[1] = test system: depressive-like behavior induced by Aβ; settings: through the increased levels of NA; no reference given; cited from earlier work
[2] = test system: Aβ-treated rats; design: method as in PMID 28499898; settings: acute treatment; cited from earlier work
[3] = test system: 5-HT; assay: 5-HT quantification in PFC and HIPP by HPLC with electrochemical detection; format: in vivo; settings: mice 7 days after icv Aβ 4 µM, sublingual AKBA 5 mg/kg 30 min earlier
Protocol: (§1) All behavioral experiments were conducted at 5 or 30 min after sublingual administrations of AKBA or vehicle in either SHAM or Aβ-treated mice. Based upon behavioral outcomes observed, neurochemical and biochemical quantifications were performed 30 min after AKBA or vehicle administration in either SHAM or Aβ-treated mice.
(§2) Anesthetized animals were sacrificed by cervical dislocation. Brains were immediately removed and kept on ice for dissection of PFC and HIPP, according to the atlas of Paxinos and Franklin. Tissues were frozen and stored at −80 °C until analyses were carried out. Samples (PFC and HIPP) were homogenized (1:10 w/v) at 4 °C using a PBS buffer containing a 1:100 protease and phosphatase inhibitor cocktail (HALT inhibitors, Thermo Fisher Scientific, Cleveland, OH, USA) for biochemical analyses or perchloric acid 0.1 M for neurochemical analyses. Homogenates were centrifuged at 13,000× g at 4 °C for 20 min, and supernatants were used for further determinations.
(§3) 5-HT, noradrenaline (NA), and KYN levels were measured in the PFC and HIPP of mice by HPLC coupled with an electrochemical detector (Ultimate ECD, Thermo Scientific Dionex, Milan, Italy) as already reported. Separation was performed by a LC18 reverse phase column (Kinetex, 150 mm × 3.0 mm, ODS 5 μm; Phenomenex, Castel Maggiore-Bologna, Italy). The detection was accomplished by a thin layer amperometric cell (Thermo Scientific Dionex, Milan, Italy) with a 5 mm diameter glassy carbon electrode at a working potential of 400 mV (5-HT and NA) or 0.750 mV (KYN) vs. Pd. The mobile phase consisted of an aqueous buffer containing 75 mM NaH2PO4, 1.7 mM octane sulfonic acid, 0.3 mM EDTA, and acetonitrile 10%, buffered at pH 3.0. The flow rate was kept at 0.7 mL·min-1 by an isocratic pump (Shimadzu LC-10 AD, Kyoto, Japan). Data acquisition and integration were performed by using Chromeleon software (version 6.80, Thermo Scientific Dionex, Milan, Italy). GLU concentrations were determined by HPLC coupled with fluorescence detection (emission length 460 nm; excitation length 340 nm), as previously published. Analyses were carried out using an LC18 reverse phase column (Kinetex, 150 mm × 3.0 mm, ODS 5 μm; Phenomenex, Castel Maggiore, Bologna, Italy) and detection was accomplished by pre-column derivatization with ophthalaldehyde/mercaptopropionic acid. The mobile phase consisted of a 50 mM sodium acetate buffer, at pH 6.95, with gradient methanol increasing linearly from 2 to 30% (v/v) over a 40 min run. […] Results were analyzed by Borwin software (version 1.50; Jasco, Cremella, Italy) and the amino acid concentration was expressed as µM. All data were normalized for total area weight and were expressed as concentration/mg of tissue.

[4] = test system: Aβ-treated mice; assay: Splash test in Aβ-treated mice; format: in vivo; settings: mice 7 days after icv Aβ 4 µM; sublingual AKBA 5 mg/kg 30 min before testing; Aβ vs SHAM, Aβ+AKBA vs Aβ
[5] = test system: noradrenaline (NA); assay: Noradrenaline quantification in PFC and HIPP by HPLC with electrochemical detection; format: in vivo; settings: HIPP, mice 7 days after icv Aβ 4 µM; sublingual AKBA 5 mg/kg 30 min earlier
Protocol: as §1, §2
(§4) 5-HT, noradrenaline (NA), and KYN levels were measured in the PFC and HIPP of mice by HPLC coupled with an electrochemical detector (Ultimate ECD, Thermo Scientific Dionex, Milan, Italy) as already reported. Separation was performed by a LC18 reverse phase column (Kinetex, 150 mm × 3.0 mm, ODS 5 μm; Phenomenex, Castel Maggiore-Bologna, Italy). The detection was accomplished by a thin layer amperometric cell (Thermo Scientific Dionex, Milan, Italy) with a 5 mm diameter glassy carbon electrode at a working potential of 400 mV (5-HT and NA) or 0.750 mV (KYN) vs. Pd. The mobile phase consisted of an aqueous buffer containing 75 mM NaH2PO4, 1.7 mM octane sulfonic acid, 0.3 mM EDTA, and acetonitrile 10%, buffered at pH 3.0. […] GLU concentrations were determined by HPLC coupled with fluorescence detection (emission length 460 nm; excitation length 340 nm), as previously published. […] Results were analyzed by Borwin software (version 1.50; Jasco, Cremella, Italy) and the amino acid concentration was expressed as µM. All data were normalized for total area weight and were expressed as concentration/mg of tissue.

[6] = test system: NF-kB p65; assay: Western blotting quantification of NF-kB p65 in PFC and HIPP; format: in vivo; settings: mice 7 days after icv Aβ 4 µM, sublingual AKBA 5 mg/kg 30 min earlier
Protocol: as §1, §2
(§5) The total amount of proteins was measured in homogenates by using Pierce BCA Assay (Thermo Fisher Scientific, Cleveland, OH, USA). Forty µg of the total lysate protein were separated by SDS-PAGE precast gels (Bio-Rad Laboratories Inc., Segrate (MI), Italy), transferred onto nitrocellulose membranes (Bio-Rad Laboratories Inc, Segrate (MI), Italy) and then blocked for 1 h in blocking buffer (SigmaAldrich, Milan, Italy). Rabbit polyclonal antibody against GFAP (Dako Products, USA; 1:2000), rabbit monoclonal antibody against CD11b (Abcam, Cambridge, MA, USA; ab133357, 1:1000) and mouse monoclonal antibody against NF-kB p65 (Santa Cruz Biotechnology, Dallas, Texas, USA; 1:2000) were used to incubate the membranes overnight at 4 °C. After HRP-conjugated specific antibody incubation, ECL reagent (Bio-Rad Laboratories Inc., Segrate (MI), Italy) was added to the immune complex and chemiluminescence was detected by ChemiDoc MP system (Bio-Rad Laboratories Inc., Segrate (MI), Italy). Optical densities of the bands were measured using ImageJ software (http://rsb.info.nih.gov/ij/ accessed on 15 March 2021) and normalized against bands relative to β-actin (1:5000, Abcam, Cambridge, UK).

[7] = test system: kynurenine (KYN); assay: Kynurenine quantification in PFC and HIPP by HPLC with electrochemical detection; format: in vivo; settings: mice 7 days after icv Aβ 4 µM, sublingual AKBA 5 mg/kg 30 min earlier
Protocol: as §1, §2, §3

[8] = test system: glutamate (GLU); assay: Glutamate quantification in PFC and HIPP by HPLC with fluorescence detection; format: in vivo; settings: mice 7 days after icv Aβ 4 µM, sublingual AKBA 5 mg/kg 30 min earlier
Protocol: as §1, §2, §4

[9] = test system: GFAP; assay: Western blotting quantification of GFAP in PFC and HIPP; format: in vivo; settings: mice 7 days after icv Aβ 4 µM, sublingual AKBA 5 mg/kg 30 min earlier
Protocol: as §1, §2, §5

[10] = test system: CD11b; assay: Western blotting quantification of CD11b in PFC and HIPP; format: in vivo; settings: mice 7 days after icv Aβ 4 µM, sublingual AKBA 5 mg/kg 30 min earlier
Protocol: as §1, §2, §5

[11] = test system: Aβ-treated mice; assay: Tail suspension test in Aβ-treated mice; format: in vivo; settings: mice 7 days after icv Aβ 4 µM, sublingual AKBA 5 mg/kg 30 min before, Aβ vs SHAM

## CNCCC(Oc1ccc(C(F)(F)F)cc1)c1ccccc1 (stereo not drawn) [fluoxetine]
[1]
  Depressive-like behavior induced by Aβ: reduced the depressive-like behavior

## CNC1(c2ccccc2Cl)CCCCC1=O (stereo not drawn) [ketamine]
[2]
  Pro-depressive-like effect of Aβ in rats: able to revert

## Aβ: soluble amyloid beta 1-42 peptide (Tocris), injected icv at 4 µM to evoke a depressive-like phenotype [reference compound]
[3]; HIPP
  5-HT levels in the HIPP: no differences among experimental groups
[3]; PFC
  5-HT levels in the PFC: significant decrease in PFC
[4]
  Latency to leak in the splash test: significant increase in latency to leak
  Time spent performing self-care in the splash test: reduction in time spent performing self-care
[5]
  NA levels in the HIPP: significant increase in catecholamine levels
[6]; HIPP
  NF-kB p65 content in the HIPP (optical density normalized to actin): significantly increased the levels of this transcription factor
[6]; PFC
  NF-kB p65 levels in the PFC (optical density normalized to actin): significantly increased cortical NF-kB levels
[7]; HIPP
  KYN levels in the HIPP: increase in KYN levels induced by the peptide
[7]; PFC
  KYN levels in the PFC: significant increase in cortical KYN levels
[8]; HIPP
  GLU levels in the HIPP: significantly increased hippocampal GLU levels
[8]; PFC
  GLU levels in the PFC: increased GLU levels compared to SHAM mice
[9]; HIPP
  GFAP levels in the HIPP (optical density normalized to actin): significant increase in hippocampal GFAP levels
[9]; PFC
  GFAP levels in the PFC (optical density normalized to actin): significant increase in GFAP levels
[10]; HIPP
  CD11b levels in the HIPP (optical density normalized to actin): significant enhanced hippocampal levels
[10]; PFC
  CD11b content in the PFC (optical density normalized to actin): no differences were found among experimental groups
[11]
  Immobility time in the tail suspension test: significant increase in the immobility time
